Drawing on US6121323A, “Bishydroxyureas” (3M Innovative Properties Company, priority 1997, dated 2000), this text covers inhibition and inhibition in vivo for eight molecules.

As usually defined, the inhibition is the drop in the measured response relative to a control, in per cent. For orientation: inhibition in vivo means how much of the control response was suppressed. The low end stands for a response near the control, the high end for a response far below the control.

Test [1] deals with Leukotriene C4 production in mouse peritoneal macrophages. Kind of test: In vitro mouse peritoneal macrophage Leukotriene C4 inhibition. Format: cell-based. To be noted: zymosan stimulated, read-out: Percent Inhibition. The method, then: IN VITRO MOUSE PERITONEAL MACROPHAGE LEUKOTRIENE C4 INHIBITION
The test described below measures the ability of compounds to inhibit the production of Leukotriene C4 in mouse peritoneal macrophages.
Mice (female, CD-1, weighing 25 g) are euthanized by exposure to carbon dioxide. The pertoneal cavity is exposed by peeling back the abdominal skin. A 5 mL portion of media (M199 containing 1% fetal bovine serum, 100 units/mL of penicillin, 100 μg/mL streptomycin, 20 units/mL of heparin and no glutamine) is injected into the exposed peritoneal cavity of each mouse. The lavage fluid is removed and pooled to yield proximately 1×10^6 macrophages/mL. A 2 mL portion of lavage fluid is added to each well of a 24 well sterile multidish and the marcophages are allowed to adhere to the plate for 2 hours at 37° C. in a 5% carbon dioxide atmosphere. The media is removed and each well is washed with 2 mL of phosphate buffered saline (PBS). A 1 mL portion of media, without heparin, but containing 5 μCi/mL of 3H-myoinositol is added to each well and the plates are incubated overnight at 37° C. in a 5% carbon dioxide atmosphere. The media is removed and the cells are washed twice with 2 mL portions of PBS. A 1 mL portion of Puck's saline formulation A containing 1 mM calcium chloride, 1 mM magnesium chloride and 10 mM lithium chloride is added to each well. (The Puck's formulation is made first as a 10× solution which contains 4 g of potassium chloride, 80 g of sodium chloride and 10 g of glucose per liter. The Puck's saline formulation A is made using 10 mL of the 10× Puck's formulation, 0.47 mL of 7.5% sodium bicarbonate and 2 mL of 1M N-2-hydroxyethylpiperazine-N'-2-ethanesulfonic acid per 100 mL.)
Compounds are dissolved in dimethyl sulfoxide. Compounds are tested at concentrations of 10, 1 and 0.1 μM. Each concentration is tested in duplicate.
A 1 μL portion of compound solution or vehicle (DMSO) is added to each well and the plates are incubated for 15 minutes at 37° C. in a 5% carbon dioxide atmosphere. Zymosan is then added to provide a final concentration of 50 μg/mL in each well and the plate is incubated for 1 to 2 hours at 37° C. in a 5% carbon dioxide atmosphere.
Following incubation 200 μL portions of media are transferred to 12×75 mm tubes. The tubes are either assayed immediately or stored at -20° C. until they can be assayed.
The media is assayed for the presence of Leukotriene C4 by radioimmunoassay which is performed according to the manufacturer's instructions (Advanced Magnetics; Cambridge, Mass.). Inhibition of LTC4 production is calculated as the ratio of the amount of LTC4 formed in the presence (LTC4 +cpd) and absence (LTC4 no cpd)of compound according to the equation below. [formula] IC50 values (concentration of compound producing a 50% inhibition of LTC4 production) are calculated by linear regression analysis of percentage inhibition versus log compound concentration plots.

Test [2] has as its system Leukotriene B4 production in rat blood. The test can be described thus: Rat ex vivo Leukotriene B4 inhibition. It counts as in vivo. Conditions: 50 mg/Kg oral, 2 hours post dose, ex vivo A23187 challenge. As for the experimental part:
RAT EX VIVO LEUKOTRIENE B4 INHIBITION
The test method described below measures the ability of a compound when administrated orally to rats to inhibit the production of Leukotriene B4 in their blood which is drawn and challenged.
Rats (CD, male, non-fasted, 250 g) are lightly anesthetized with carbon dioxide and an approximately 0.75 mL sample of whole blood is obtained via cardiac puncture. The sample is dispensed into 12×75 mm polypropylene tubes containing 8-10 μL of 10,000 units/mL heparin, mixed and then maintained on ice. The rats are allowed to recover approximately one hour then dosed orally with compound dissolved in PEG 400 at a 5 mL/Kg volume. Five (5) rats are utilized per group. Two (2) hours post dose the rats are again anesthetized with carbon dioxide and the blood sampled again via cardiac puncture.
Duplicate 200 μL portions of blood are added to 1.0 mL polypropylene tubes. A 10 μL portion of 1 mM A23 187 Calcium Ionophore in dimethyl sulfoxide/Tris buffer is added to each tube. The tubes are gently vortexed then incubated in a 37° C. water bath for 30 minutes. The tubes are then centrifuged at 4000 rpm for 10 minutes. 50 μL portions of plasma are transferred to 1.0 mL tubes containing 200 μL of methanol. The tubes are vortexed then placed in the freezer overnight.
The tubes are removed from the freezer then centrifuged at 4000 rpm for 10 minutes. 20 μL portions of the methanol/plasma supernatant and 10 μl methanol dilutions of LTB4 standard are transferred to 96 well v-bottom microtiter plates. The plates are vacuum dried at 40° C. A 40 μL portion of LTB4 radioimmunoassay buffer is added to each well. The plate is bath sonicated for 5 minutes then assayed according to the manufacturer's instructions (Advanced Magnetics; Cambridge, Mass.). Percent inhibition values are obtained by comparing the level of LTB4 in the post-dose samples to the level in the pre-dose samples according to the equation below. [formula]

As to `CN(O)C(=O)Nc1ccc(C(c2ccc(NC(=O)N(C)O)cc2)(C(F)(F)F)C(F)(F)F)cc1` [Example 5, 4,4'-(2,2-Hexafluoropropane)bis(1-hydroxy-1-methyl-3-phenylurea)], in test [1], the inhibition at 0.1 µM is 91%, the inhibition at 1 µM is 100% and the inhibition at 10 µM is 100%.
For `O=C(NCCCCCCNC(=O)N(O)Cc1ccccc1)N(O)Cc1ccccc1` [Example 10, 1,1'-Hexamethylenebis(3-hydroxy-3-benzylurea)], in test [2], the inhibition in vivo at 50 mg/kg turned out to be 8%. In addition, in test [1], the inhibition at 0.1 µM worked out at 7%, the inhibition at 1 µM worked out at 94% and the inhibition at 10 µM was determined as 94%.
Turning to `CN(O)C(=O)Nc1cccc2c(NC(=O)N(C)O)cccc12` [Example 8, 1,1'-(1,5-Naphthalene)bis(3-hydroxy-3-methylurea)], in test [1], the inhibition at 0.1 µM came to 55%, the inhibition at 1 µM is 76% and the inhibition at 10 µM was determined as 91%.
As for `CN(O)C(=O)N[C@H]1CC[C@H](NC(=O)N(C)O)CC1` [Example 9, trans-1,4-Cyclohexanebis(3-hydroxy-3-methylurea)], in test [2], the inhibition in vivo at 50 mg/kg came to 4%. For the same molecule, in test [1], the inhibition at 0.1 µM amounted to 1%, the inhibition at 1 µM stood at 1% and the inhibition at 10 µM is -6%.
On to `CN(O)C(=O)Nc1ccc(Oc2ccc(NC(=O)N(C)O)cc2)cc1` [Example 6, 4,4'-Oxybis(1-hydroxy-1-methyl-3-phenylurea)], for which, in test [1], the inhibition at 0.1 µM amounted to 48%, the inhibition at 1 µM worked out at 99% and the inhibition at 10 µM worked out at 99%.
Consider `COc1cc(-c2ccc(NC(=O)N(C)O)c(OC)c2)ccc1NC(=O)N(C)O` [Example 11], for which 50 mg/kg produced 4% inhibition in vivo in test [2]. In test [1], the inhibition at 0.1 µM came to 42%, the inhibition at 1 µM came out at 100% and the inhibition at 10 µM worked out at 99%.
Regarding `CN(O)C(=O)Nc1cccc(NC(=O)N(C)O)c1` [Example 7, 1,1'-(m-Phenylene)bis(3-hydroxy-3-methylurea)], testing at 50 mg/kg in test [2] gave an inhibition in vivo of 59%. Besides, in test [1], the inhibition at 0.1 µM was -19%, the inhibition at 1 µM is 7% and the inhibition at 10 µM came to 98%.
For `CCc1cc(Cc2cc(CC)c(NC(=O)N(C)O)c(CC)c2)cc(CC)c1NC(=O)N(C)O` [Example 4, 4,4'-Methylenebis(1-hydroxy-1-methyl-3-(2,6-diethylphenyl)urea)], in test [1], the inhibition at 0.1 µM was -24%, the inhibition at 1 µM worked out at 6% and the inhibition at 10 µM worked out at 67%.
